Results as given in patent US20250136722A1, “CYTOTOXICITY TARGETING CHIMERAS” (GLAXOSMITHKLINE INTELLECTUAL PROPERTY DEVELOPMENT LIMITED, priority 2021, published 2025).
Values joined by “and” are separate entries in the source; they are usually repeats but may differ in a detail not shown here. Identical values can stand only once.

Experiments:
[1] = molecular target: T1, CHOK1 cells engineered to overexpress human CCR2 (Homo sapiens, UniProt P41597); experiment: Antibody dependent cellular cytotoxicity (ADCC) reporter assay (Example 199); type: cell-based; settings: with anti-cotinine antibody SEQ ID NO: 11/12; CHOK1-human CCR2 target cells, Jurkat FcγRIIIa NFAT-luciferase reporter cells; 12-18 hours; read-out: ADCC Reporter Assay pEC50 (converted)
T1 construct: expressed in transfected cells; host or cells: CHOK1 cells
Summary of the method: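 CHOK1-hCCR2 target cells are co-incubated for 12–18 h with Jurkat FcγRIIIa/NFAT-luciferase reporter cells, ARM compound (1 pM–10 μM) and anti-cotinine antibody with a DE-mutant human IgG1 Fc (0.01–200 μg/mL). Luminescence is expressed as signal:background against no-compound wells; EC50 comes from nonlinear fit and is reported as pEC50, averaged across runs.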

[2] = molecular target: Anti-cotinine antibody (SEQ ID NO: 11 / SEQ ID NO: 12, rabbit variable region with human IgG1 Fc domain); experiment: Binding of anti-cotinine antibody to ARM compounds by SPR, Biacore T200, 37° C. (Example 202); settings: pH 7.4, rabbit variable region/human IgG1 Fc antibody captured on protein A
Summary of the method: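 Antibody captured on protein A chip. Compounds injected (3-fold, 5-point, top 200 nM) at 100 μL/min with 200 s association and 2000 s dissociation, at 37° C. in HEPES pH 7.4 buffer with 1% DMSO. Double-referenced data fit to 1:1 kinetics. Kd = koff/kon, reported as pKd, averaged over runs.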

[3] = molecular target: human alpha1 nicotinic acetylcholine (nACh) receptor (Homo sapiens, UniProt P02708+Q07001); experiment: Nicotinic acetylcholine receptor antagonism assay, IONFlux automated patch clamp (Example 203); type: cell-based; settings: for IC50: nAChR antagonism, ACh stimulated, patch clamp; for Emax at 100 µM: maximum percentage antagonism at maximum concentration tested 100 μM; for Emax at 10 µM: maximum percentage antagonism at maximum concentration tested 10 μM
Procedure: Cells expressing human alpha1 nicotinic acetylcholine (nACh) receptor (nAChR) were washed and dissociated using Trypsin containing buffer. Cells were then washed and seeded at a density of 3-5 million cells/mL and allowed to grow for 3 days. Then, 60-80 μL of cells were added to plates and incubated with dose response of an ARM compound of Formula (I) with a top concentration of either 10 μM or 100 μM. The receptor was then stimulated via addition of acetylcholine (ACh) and activation of the receptor was monitored via the IONFlux automated patch clamp system. IonFlux Data Analyzer software was utilized to perform leak subtraction and measure (min) peak current amplitude.
Data processing: (1) Current values recorded for vehicle only applications in individual traps/patterns were subtracted from corresponding current amplitude values for control, test article and control+test article. (2) Control response was calculated as % of the average response of the 3rd out of total 3 ACh (10 mM) applications alone. In rare situations, if the 3rd ACh response was obscured due to technical artifacts, the 2nd and/or 1 st ACh (10 mM) application was considered as control. The peak current amplitude generated in the presence of each test article concentration was then used to calculate the % inhibition as compared to control response (10 mM ACh alone). These estimates were further corrected for vehicle response and run down corrected by normalizing with time matched control responses (10 mM ACh alone). The corrected percentages were then fit with a non-linear function in GraphPad Prism 6 (or later versions) to determine the […].
Exclusion criteria: (i) any n's with poor recording quality, (ii) control current amplitude <500 pA or (iii) significant outliers, as determined by the Grubbs' test.
ARMs compounds of Formula (I) of the invention were tested for antagonism of the nAChR in the above assay in […] experimental runs and the results are shown in Table 7 below. Antagonistic activity of the compounds of Formula (I) of the invention is reported as an IC50 value (half maximal inhibitory concentration) and the maximum percentage antagonism observed at the highest concentration of compound of Formula (I) tested, as indicated in Table 7. For compounds tested in more than one experimental run, the IC50 value is reported as an average.

human alpha1 nicotinic acetylcholine (nACh) receptor, sequence (P02708 21-457): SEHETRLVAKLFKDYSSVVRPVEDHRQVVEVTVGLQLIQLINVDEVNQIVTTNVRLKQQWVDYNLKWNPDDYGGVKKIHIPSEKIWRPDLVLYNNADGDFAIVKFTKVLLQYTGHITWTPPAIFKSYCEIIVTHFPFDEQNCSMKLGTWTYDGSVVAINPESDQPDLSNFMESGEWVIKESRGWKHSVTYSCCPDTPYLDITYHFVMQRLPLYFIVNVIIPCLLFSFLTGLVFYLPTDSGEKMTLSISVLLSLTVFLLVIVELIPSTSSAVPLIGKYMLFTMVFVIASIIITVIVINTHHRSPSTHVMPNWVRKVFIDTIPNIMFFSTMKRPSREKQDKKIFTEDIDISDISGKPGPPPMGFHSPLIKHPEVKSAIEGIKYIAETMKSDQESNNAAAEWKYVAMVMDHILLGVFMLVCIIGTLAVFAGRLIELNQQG
human alpha1 nicotinic acetylcholine (nACh) receptor, sequence (P11230 24-501 partner): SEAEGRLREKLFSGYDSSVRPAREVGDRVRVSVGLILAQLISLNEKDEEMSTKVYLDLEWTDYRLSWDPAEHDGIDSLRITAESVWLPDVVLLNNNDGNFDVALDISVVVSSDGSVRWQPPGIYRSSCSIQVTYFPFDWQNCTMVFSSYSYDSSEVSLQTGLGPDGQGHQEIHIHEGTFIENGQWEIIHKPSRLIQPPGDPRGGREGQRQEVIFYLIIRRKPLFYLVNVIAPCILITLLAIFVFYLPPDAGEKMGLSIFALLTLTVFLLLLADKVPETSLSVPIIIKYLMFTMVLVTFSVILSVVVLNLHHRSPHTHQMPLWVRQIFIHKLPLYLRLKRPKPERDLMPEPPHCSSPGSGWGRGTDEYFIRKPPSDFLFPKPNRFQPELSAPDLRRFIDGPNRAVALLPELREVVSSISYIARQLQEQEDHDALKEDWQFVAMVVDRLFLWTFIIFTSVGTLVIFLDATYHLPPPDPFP
human alpha1 nicotinic acetylcholine (nACh) receptor, sequence (Q07001 22-517): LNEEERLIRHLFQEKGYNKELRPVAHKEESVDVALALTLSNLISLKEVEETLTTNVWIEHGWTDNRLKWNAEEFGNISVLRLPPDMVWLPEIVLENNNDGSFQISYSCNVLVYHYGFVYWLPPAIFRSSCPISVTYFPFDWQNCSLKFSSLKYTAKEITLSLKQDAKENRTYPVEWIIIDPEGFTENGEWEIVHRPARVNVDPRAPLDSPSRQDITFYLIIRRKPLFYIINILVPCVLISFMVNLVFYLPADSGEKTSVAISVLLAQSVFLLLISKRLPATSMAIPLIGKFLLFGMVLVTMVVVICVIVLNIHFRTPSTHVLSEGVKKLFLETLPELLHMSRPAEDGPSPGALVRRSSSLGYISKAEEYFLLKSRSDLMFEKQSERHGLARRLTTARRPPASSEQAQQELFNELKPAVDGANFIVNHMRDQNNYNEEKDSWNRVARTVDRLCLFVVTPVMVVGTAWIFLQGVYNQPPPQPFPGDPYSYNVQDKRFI

SMILES	EC50 [1]	pKd of Antibody for ARM Compound of Formula (I) [2]	Emax at 33.33 µM ([3]; maximum percentage antagonism at maximum concentration tested 33.33 μM, read-out: Maximum Response (%)) [%]	IC50 [3] [nM]	Emax at 11.11 µM ([3]; maximum percentage antagonism at maximum concentration tested 11.11 μM, read-out: Maximum Response (%)) [%]	Emax at 30 µM ([3]; maximum percentage antagonism at maximum concentration tested 30 μM, read-out: Maximum Response (%)) [%]	Emax at 100 µM ([3]; read-out: Maximum Response (%)) [%]	Emax at 10 µM ([3]; read-out: Maximum Response (%)) [%]
CC(C)N(C)[C@@H]1CC[C@H](N2CC[C@H](Nc3ncnc4ccc(C(F)(F)F)cc34)C2=O)[C@H](NC(=O)[C@H]2CC[C@@H](NC(=O)CCCO[C@H]3CC[C@H](NC(=O)CCNC(=O)[C@@H]4CC(=O)N(C)[C@H]4c4cccnc4)CC3)CC2)C1 [Example 52, (2S,3S)-N-(3-(((1R,4S)-4-(4-(((1S,4S)-4-(((1R,2S,5R)-5-(Isopropyl(methyl)amino)-2-((S)-2-oxo-3-((6-(trifluoromethyl)quinazolin-4-yl)amino)pyrrolidin-1-yl)cyclohexyl)carbamoyl)cyclohexyl)amino)-4-oxobutoxy)cyclohexyl)amino)-3-oxopropyl)-1-methyl-5-oxo-2-(pyridin-3-yl)pyrrolidine-3-carboxamide]	0.222 nM and 0.294 nM	9.2545	8.3	> 33300				
CC(C)N(C)[C@@H]1CC[C@H](N2CC[C@H](Nc3ncnc4ccc(C(F)(F)F)cc34)C2=O)[C@H](NC(=O)[C@H]2CC[C@H](NC(=O)CCOC[C@H]3CC[C@H](COCCNC(=O)[C@H]4CC(=O)N(C)[C@@H]4c4cccnc4)CC3)CC2)C1 [Example 53, (2S,3S)-N-(2-(((1R,4S)-4-((3-(((1R,4R)-4-(((1R,2S,5R)-5-(Isopropyl(methyl)amino)-2-((S)-2-oxo-3-((6-(trifluoromethyl)quinazolin-4-yl)amino)pyrrolidin-1-yl)cyclohexyl)carbamoyl)cyclohexyl)amino)-3-oxopropoxy)methyl)cyclohexyl)methoxy)ethyl)-1-methyl-5-oxo-2-(pyridin-3-yl)pyrrolidine-3-carboxamide]	7.6 nM	9.531		> 11100	10			
CC(C)N(C)[C@@H]1CC[C@H](N2CC[C@H](Nc3ncnc4ccc(C(F)(F)F)cc34)C2=O)[C@H](NC(=O)[C@H]2CC[C@H](NC(=O)CCCOC[C@H]3CC[C@@H](COCCNC(=O)[C@H]4CC(=O)N(C)[C@@H]4c4cccnc4)CC3)CC2)C1 [Example 57, (2S,3S)-N-(2-(((1S,4R)-4-((4-(((1R,4R)-4-(((1R,2S,5R)-5-(Isopropyl(methyl)amino)-2-((S)-2-oxo-3-((6-(trifluoromethyl)quinazolin-4-yl)amino)pyrrolidin-1-yl)cyclohexyl)carbamoyl)cyclohexyl)amino)-4-oxobutoxy)methyl)cyclohexyl)methoxy)ethyl)-1-methyl-5-oxo-2-(pyridin-3-yl)pyrrolidine-3-carboxamide]	1.61 nM and 1.48 nM and 5.07 nM	9.685		> 30000		47.6		
CC(C)N(C)[C@@H]1CC[C@H](N2CC[C@H](Nc3ncnc4ccc(C(F)(F)F)cc34)C2=O)[C@H](NC(=O)CCNC(=O)CCCOC[C@H]2CC[C@@H](COCCNC(=O)[C@H]3CC(=O)N(C)[C@@H]3c3cccnc3)CC2)C1 [Example 62]	0.867 nM	9.6305		29000			67.9	
CC(C)N(C)[C@@H]1CC[C@H](N2CC[C@H](Nc3ncnc4ccc(C(F)(F)F)cc34)C2=O)[C@H](NC(=O)[C@H]2CC[C@@H](NC(=O)CCOCCOCCNC(=O)CNC(=O)[C@H]3CC(=O)N(C)[C@@H]3c3cccnc3)CC2)C1 [Example 63, (2S,3S)-N-(2-((2-(2-(3-(((1 S,4s)-4-(((1R,2S,5R)-5-(Isopropyl(methyl)amino)-2-((S)-2-oxo-3-((6-(trifluoromethyl)quinazolin-4-yl)amino)pyrrolidin-1-yl)cyclohexyl)carbamoyl)cyclohexyl)amino)-3-oxopropoxy)ethoxy)ethyl)amino)-2-oxoethyl)-1-methyl-5-oxo-2-(pyridin-3-yl)pyrrolidine-3-carboxamide]	0.67 nM and 0.31 nM	8.674		38500			76.6	
CC(C)N(C)[C@@H]1CC[C@H](N2CC[C@H](Nc3ncnc4ccc(C(F)(F)F)cc34)C2=O)[C@H](NC(=O)[C@H]2CC[C@@H](C3CCN(C(=O)CCOCCOCCNC(=O)[C@H]4CC(=O)N(C)[C@@H]4c4cccnc4)CC3)CC2)C1 [Example 72, (2S,3S)-N-(2-(2-(3-(4-((1S,4s)-4-(((1R,2S,5R)-5-(isopropyl(methyl)amino)-2-((S)-2-oxo-3-((6-(trifluoromethyl)quinazolin-4-yl)amino)pyrrolidin-1-yl)cyclohexyl)carbamoyl)cyclohexyl)piperidin-1-yl)-3-oxopropoxy)ethoxy)ethyl)-1-methyl-5-oxo-2-(pyridin-3-yl)pyrrolidine-3-carboxamide]	7.94 nM	9.8865		> 10000				32.7
CC(C)N(C)[C@@H]1CC[C@H](N2CC[C@H](Nc3ncnc4ccc(C(F)(F)F)cc34)C2=O)[C@H](NC(=O)CCOCCOCCNC(=O)CCOCCOCCNC(=O)[C@H]2CC(=O)N(C)[C@@H]2c2cccnc2)C1 [Example 76]	2.51 nM	9.1155		32400			67.7	
CC(C)N(C)[C@@H]1CC[C@H](N2CC[C@H](Nc3ncnc4ccc(C(F)(F)F)cc34)C2=O)[C@H](NC(=O)COCCOCCNC(=O)CCOCCOCCNC(=O)[C@H]2CC(=O)N(C)[C@@H]2c2cccnc2)C1 [Example 77]	5.52 nM	9.152		> 10000				19.6
CC(C)N(C)[C@@H]1CC[C@H](N2CC[C@H](Nc3ncnc4ccc(C(F)(F)F)cc34)C2=O)[C@H](NC(=O)[C@H]2CC[C@@H](NC(=O)COCCNC(=O)COCCNC(=O)[C@H]3CC(=O)N(C)[C@@H]3c3cccnc3)CC2)C1 [Example 99]	1.99 nM	9.062		33100			71.1	
CC(C)N(C)[C@@H]1CC[C@H](N2CC[C@H](Nc3ncnc4ccc(C(F)(F)F)cc34)C2=O)[C@H](NC(=O)CCOCCNC(=O)COCCNC(=O)COCCNC(=O)[C@H]2CC(=O)N(C)[C@@H]2c2cccnc2)C1 [Example 102, (2S,3S)-N-(18-(((1R,2S,5R)-5-(Isopropyl(methyl)amino)-2-((S)-2-oxo-3-((6-(trifluoromethyl)quinazolin-4-yl)amino)pyrrolidin-1-yl)cyclohexyl)amino)-5,11,18-trioxo-3,9,15-trioxa-6,12-diazaoctadecyl)-1-methyl-5-oxo-2-(pyridin-3-yl)pyrrolidine-3-carboxamide]	1.26 nM	9.076		66100			61.3	
CC(C)N(C)[C@@H]1CC[C@H](N2CC[C@H](Nc3ncnc4ccc(C(F)(F)F)cc34)C2=O)[C@H](NC(=O)CCOCCNC(=O)CCOCCNC(=O)COCCNC(=O)[C@H]2CC(=O)N(C)[C@@H]2c2cccnc2)C1 [Example 105]	0.794 nM	9.0705		38900			75.7	
